Reference: ChEMBL document CHEMBL3244067, “Synthesis and biological activity of carboxyl-terminus modified prostaglandin analogues” (J Med Chem, 1979)

Assays:
[1] = Dissociation constant, pKa of the compound; type: physicochemical
[2] = Spasmogenic activity in nulliparous guinea pig uterine relative to PGE2; type: functional, Cavia porcellus, Uterus
Mus musculus = assay: Induction of diarrheal activity in conscious mouse at 0.1 to 3 mg/kg, iv administered for 30 mins relative to PGE2; type: organism-based; set-up: dose 0.1-3 mg/kg, route intravenous; details: in vivo, 0.5 h
Canis familiaris = assay: Hypotensive activity in iv dosed PGE2-treated Mongrel dog assessed as change in blood pressure of greater than 10 mm by mercury manometer relative to PGE2; type: functional, Canis lupus familiaris
Cavia porcellus = assay: Bronchodilator activity in Reed-Willet guinea pig assessed as inhibition of histamine-induced bronchoconstriction at 0.28 mM administered through nebulizer for 1 min relative to PGE2; type: functional
Rattus norvegicus [3] = assay: Antisecretory activity in rat assessed as inhibition of pentagastrin-stimulated gastric acid secretion at 50 ug/kg, iv relative to PGE2; type: functional, Stomach
Rattus norvegicus [4] = assay: Antisecretory activity in rat assessed as inhibition of pentagastrin-stimulated gastric acid secretion at 10 ug/kg, iv relative to PGE2; type: functional, Stomach

| pKa [1] | fold change (FC) (Mus musculus) | Compound | fold change (FC) [2] | fold change (FC) (Canis familiaris) | fold change (FC) (Cavia porcellus) | fold change (FC) (Rattus norvegicus [3]) | fold change (FC) (Rattus norvegicus [4]) |
| --- | --- | --- | --- | --- | --- | --- | --- |
| 5.19 |  | O=C(O)CCCC[P+](c1ccccc1)(c1ccccc1)c1ccccc1 |  |  |  |  |  |
|  | 25 | CCCCC[C@H](O)/C=C/[C@@H]1[C@@H](C/C=C\CCCC(=O)NS(C)(=O)=O)[C@@H](O)C[C@H]1O | <0.1 | <0.5 |  |  |  |
| 5.12 |  | O=C(CCCC[P+](c1ccccc1)(c1ccccc1)c1ccccc1)NS(=O)(=O)c1ccccc1 |  |  |  |  |  |
|  | 100 | CCCCC[C@H](O)/C=C/[C@H]1[C@H](O)CC(=O)[C@@H]1C/C=C\CCCC(=O)NC(C)=O | 65 | 25 | 63 | 160 |  |
|  | < 5 | CCCCC[C@H](O)/C=C/[C@@H]1[C@@H](C/C=C\CCNC(=O)NC(C)=O)[C@@H](O)C[C@H]1O | <0.1 | <0.5 |  |  |  |
|  | < 5 | CCCCC[C@H](O)/C=C/[C@H]1[C@H](O)CC(=O)[C@@H]1C/C=C\CCNC(=O)NC(C)=O | <0.1 | <0.5 | 25 | 0 |  |
|  | 83 | CCCCC[C@H](O)/C=C/[C@H]1[C@H](O)CC(=O)[C@@H]1C/C=C\CCCC(=O)NC(=O)c1ccccc1 | 67 | 10 | 87 | 40 |  |
|  | 10 | CCCCC[C@H](O)/C=C/[C@H]1[C@H](O)CC(=O)[C@@H]1C/C=C\CCCC(N)=O | 0.6 | 10 | 28 | 0 |  |
| 5.25 |  | CS(=O)(=O)NC(=O)CCCC[P+](c1ccccc1)(c1ccccc1)c1ccccc1 |  |  |  |  |  |
| 12.9 |  | CC(=O)NC(=O)CCCC[P+](c1ccccc1)(c1ccccc1)c1ccccc1 |  |  |  |  |  |
|  | 6.5 | CCCCC[C@H](O)/C=C/[C@@H]1[C@@H](C/C=C\CCCC(=O)O)[C@@H](O)C[C@H]1O [DINOPROST] | 10 | 10 |  |  |  |
|  | < 5 | CCCCC[C@H](O)/C=C/[C@@H]1[C@@H](C/C=C\CCCC(N)=O)[C@@H](O)C[C@H]1O | <0.1 | 2.5 |  |  |  |
|  | 2550 | CCCCC(C)(C)[C@H](O)/C=C/[C@H]1[C@H](O)CC(=O)[C@@H]1C/C=C\CCCc1nnn[nH]1 | 120 | 10 | 76 |  | 130 |
|  | 5300 | CCCCC(C)(C)[C@H](O)/C=C/[C@H]1[C@H](O)CC(=O)[C@@H]1C/C=C\CCCC(=O)O | 33 | 10 | 41 |  | 360 |
|  | 1250 | CCCCC(C)(C)[C@H](O)/C=C/[C@H]1[C@H](O)CC(=O)[C@@H]1C/C=C\CCCC(=O)NC(C)=O | 100 | 2.5 | 24 |  | 330 |
| 4.93 |  | c1ccc([P+](CCCCc2nnn[nH]2)(c2ccccc2)c2ccccc2)cc1 |  |  |  |  |  |
|  | < 5 | CCCCC[C@H](O)/C=C/[C@@H]1[C@@H](C/C=C\CCCc2nnn[nH]2)[C@@H](O)C[C@H]1O | 0.8 | 2.5 |  |  |  |
|  | 50 | CCCCC[C@H](O)/C=C/[C@H]1[C@H](O)CC(=O)[C@@H]1C/C=C\CCCc1nnn[nH]1 | 100 | 10 | 65 | 35 |  |
|  | < 10 | CCCCC[C@H](O)/C=C/[C@@H]1[C@@H](C/C=C\CCCC(=O)NC(=O)NCC)[C@@H](O)C[C@H]1O | <0.1 | <0.5 |  |  |  |
|  | 33 | CCCCC[C@H](O)/C=C/[C@H]1[C@H](O)CC(=O)[C@@H]1C/C=C\CCCC(=O)NS(=O)(=O)c1ccccc1 | 3.1 | <0.5 | 28 | 20 |  |
| 15.1 |  | NC(=O)CCCC[P+](c1ccccc1)(c1ccccc1)c1ccccc1 |  |  |  |  |  |
|  | 78 | CCCCC[C@H](O)/C=C/[C@@H]1[C@@H](C/C=C\CCCC(=O)NC(C)=O)[C@@H](O)C[C@H]1O | 30 | <0.5 |  |  |  |
|  | 27 | CCCCC[C@H](O)/C=C/[C@H]1[C@H](O)CC(=O)[C@@H]1C/C=C\CCCC(=O)NC(=O)NCC | 0.2 | 0.5 | 28 | 0 |  |
|  | 10 | CCCCC[C@H](O)/C=C/[C@H]1[C@H](O)CC(=O)[C@@H]1C/C=C\CCCC(=O)NS(C)(=O)=O | 7 | 1 | 47 | 12 |  |
|  | < 10 | CCCCC[C@H](O)/C=C/[C@@H]1[C@@H](C/C=C\CCCC(=O)NS(=O)(=O)c2ccccc2)[C@@H](O)C[C@H]1O | <0.1 | <0.5 |  |  |  |
|  | 1350 | CCCCC(C)(C)[C@H](O)/C=C/[C@H]1[C@H](O)CC(=O)[C@@H]1C/C=C\CCCC(=O)NS(C)(=O)=O | 25 | <0.5 | 28 |  | 220 |
|  | < 5 | CCCCC[C@H](O)/C=C/[C@@H]1[C@@H](C/C=C\CCCC(=O)NC(=O)c2ccccc2)[C@@H](O)C[C@H]1O | 0.9 | 0.5 |  |  |  |
| 12.9 |  | O=C(CCCC[P+](c1ccccc1)(c1ccccc1)c1ccccc1)NC(=O)c1ccccc1 |  |  |  |  |  |
